Results reported in patent US7037644B1, “Means and methods for monitoring non-nucleoside reverse transcriptase inhibitor antiretroviral therapy and guiding therapeutic decisions in the treatment of HIV/AIDS” (ViroLogic, Inc., priority 1998, dated 2006).
Entries after “also recorded” stand apart in the source; their conditions may differ.

Experiments:
Format in all cases: cell-based, HIV-1
[1] = test system: RTV-652, patient 98-652 (RT V108I); assay: Phenotypic susceptibility assay (patient RTV); conditions: patient RTV pool; below 1 = increased susceptibility
Description: The resistance test vectors containing a functional luciferase gene cassette were constructed and host cells were transfected with the resistance test vector DNA. The resistant test vectors contained patient-derived reverse transcriptase and protease sequences that were either susceptible or resistant to the antiretroviral agents, such as nucleoside reverse transcriptase inhibitors, non-nucleoside reverse transcriptase inhibitors and protease inhibitors. […] The IC50 values were determined by plotting percent drug inhibition vs. log10 drug concentration.
Host cells were seeded in 10-cm-diameter dishes and were transfected several days after plating with resistance test vector plasmid DNA and the envelope expression vector. […] HIV capsid protein (p24) levels in the harvested cell culture media were determined by an EIA method as described by the manufacturer (SIAC; Frederick, Md.). […] The inhibitory effect of the drug was determined using the following equation: % luciferase inhibition=1−(RLUluc [drug]÷RLUluc)×100 where RLUluc [drug] is the relative light unit of luciferase activity in infected cells in the presence of drug and RLUluc is the Relative Light Unit of luciferase activity in infected cells in the absence of drug. […]

[2] = test system: RTV-757, patient 98-757 (RT V106A, V108I, V189L); assay: Phenotypic susceptibility assay (patient RTV); conditions: patient RTV pool
From the text: (§1) The resistance test vectors containing a functional luciferase gene cassette were constructed and host cells were transfected with the resistance test vector DNA. The resistant test vectors contained patient-derived reverse transcriptase and protease sequences that were either susceptible or resistant to the antiretroviral agents, such as nucleoside reverse transcriptase inhibitors, non-nucleoside reverse transcriptase inhibitors and protease inhibitors. The resistance test vector viral particles produced by transfecting the resistance test vector DNA into host cells, either in the presence or absence of protease inhibitors, were used to infect target host cells grown either in the absence of NRTI or NNRTI or in the presence of increasing concentrations of the drug. The amount of luciferase activity produced in infected target host cells in the presence of drug was compared to the amount of luciferase produced in infected target host cells in the absence of drug. Drug resistance was measured as the amount of drug required to inhibit by 50% the luciferase activity detected in the absence of drug (inhibitory concentration 50%, IC50). The IC50 values were determined by plotting percent drug inhibition vs. log10 drug concentration.
(§2) Host cells were seeded in 10-cm-diameter dishes and were transfected several days after plating with resistance test vector plasmid DNA and the envelope expression vector. Transfections were performed using a calcium-phosphate precipitation procedure. The cell culture media containing the DNA precipitate was replaced with fresh medium, from one to 24 hours, after transfection. Cell culture media containing resistance test vector viral particles was harvested one to four days after transfection and was passed through a […] filter before being stored at […]. HIV capsid protein (p24) levels in the harvested cell culture media were determined by an EIA method as described by the manufacturer (SIAC; Frederick, Md.). Before infection, target cells (293 and 293/T) were plated in cell culture media. Control infections were performed using cell culture media from mock transfections (no DNA) or transfections containing the resistance test vector plasmid DNA without the envelope expression plasmid. One to three or more days after infection the media was removed and cell lysis buffer (Promega) was added to each well. Cell lysates were assayed for luciferase activity (FIG. 3). The inhibitory effect of the drug was determined using the following equation: % luciferase inhibition=1−(RLUluc [drug]÷RLUluc)×100 where RLUluc [drug] is the relative light unit of luciferase activity in infected cells in the presence of drug and RLUluc is the Relative Light Unit of luciferase activity in infected cells in the absence of drug. IC50 values were obtained from the sigmoidal curves that were generated from the data by plotting the percent inhibition of luciferase activity vs. the log10 drug concentration. The drug inhibition curves are shown in (FIG. 3).
A resistance test vector was constructed as described in Example 1 from a patient sample designated 98-1033. […]

[3] = test system: RTV-1058 clone 10 (RT L100I, K103N, Y188L); assay: Phenotypic susceptibility assay (patient RTV clone)
From the text: as §1, §2
(§3) A resistance test vector was constructed as described in Example 1 from a patient sample designated 98-1058. This patient had been previously treated with ddI, d4T, AZT, 3TC, ddC and abacavir (NRTIs), indinavir and amprenavir (PRIs) and nevirapine (an NNRTI). Isolation of viral RNA and RT/PCR was used to generate a patient derived segment that comprised viral sequences coding for all of RP and aa 1-313 of RT. The PDS was inserted into an indicator gene viral vector to generate a resistance test vector designated RTV-1058. Individual clones of RTV-1058 were selected and were then tested in a phenotypic assay to determine accurately and quantitatively the level of susceptibility to a panel of anti-retroviral drugs. The panel of antiretroviral drugs comprised members of the classes known as NRTIs (AZT, 3TC, d4T, kkI an ddC), NNRTIs (delavirdine and nevirapine), an PRIs (indinavir, nelfinavir, ritonavir, and saquinavir). […]

[4] = test system: RTV-1058 clone 4 (RT K103N); assay: as above
From the text: as §1, §2, §3

[5] = test system: RTV-1058 clone 5 (RT L100I, K103N); assay: as above
From the text: as §1, §2, §3

P225H-RTV = assay: Phenotypic susceptibility assay (site directed mutant RTV); conditions: P225H alone vs wild type control RTV
From the text: as §1, §2
(§4) Genotypic changes that are observed to correlate with changes in phenotypic patterns of drug susceptibility are evaluated by construction of resistance test vectors containing the specific mutation on a defined, wild-type (drug susceptible) genetic background. Mutations may be incorporated alone and/or in combination with other known drug resistance mutations that are thought to modulate the susceptibility of HIV to a certain drug or class of drugs. Mutations are introduced into the resistance test vector through any of the widely known methods for site-directed mutagenesis. In one embodiment of this invention the mega-primer PCR method for site-directed mutagenesis is used. […]

[6] = test system: RTV with P236L plus K103N, Y181C or both; assay: as above; conditions: P236L with K103N and/or Y181C vs RTV lacking P236L
From the text: as §1, §2, §4

Compound | change in susceptibility (fold, IC50) [1] | decrease in susceptibility (fold, IC50) [2] | loss of susceptibility (fold, IC50) [3] | loss of susceptibility (fold, IC50) [4] | loss of susceptibility (fold, IC50) [5] | change in susceptibility (P225H-RTV) | change in susceptibility [6]
Cc1ccnc2c1NC(=O)c1cccnc1N2C1CC1 [nevirapine] | 5 fold | greater than 800 fold | greater than 800 fold | greater than 800 fold | 120 fold | No significant change; also recorded: little or no change | –
O=C1Nc2ccc(Cl)cc2[C@@](C#CC2CC2)(C(F)(F)F)O1 [efavirenz] | – | – | – | – | – | – | restores a significant portion of the loss of susceptibility
CC(C)Nc1cccnc1N1CCN(C(=O)c2cc3cc(NS(C)(=O)=O)ccc3[nH]2)CC1 [delavirdine] | 0.97 fold | 10 fold | greater than 250 fold | 85 fold | 250 fold | more susceptible; also recorded: increase; also recorded: increase3s susceptibility | less susceptible; also recorded: additional reduction; also recorded: severe resistance
